In assay [1] the target is Neuraminidase (Influenza A virus) (UniProt B4URF0). The assay is described as follows: Inhibition of Influenza A virus (A/California/04/2009(H1N1)) wild-type neuraminidase using MU-NANA as substrate at 1000 nM after 1 hr.
Assay [2] deals with T1, Neuraminidase (Influenza A virus, UniProt B4URF0). Details: species or system Influenza A virus (A/Anhui/1/2005(H5N1)).
In assay [3] the target is T1, Neuraminidase. Set-up: species or system Influenza A virus (A/California/04/2009(H1N1)).
Assay [4] deals with T1, Neuraminidase. The assay is described as follows: Inhibition of Influenza A virus SN33 H1N1 neuraminidase using MU-NANA as substrate after 1 hr by spectrofluorometric analysis.

Calls of active or inactive are those of the source. The rule behind the calls is not given here.

T1 sequence (B4URF0 whole entry): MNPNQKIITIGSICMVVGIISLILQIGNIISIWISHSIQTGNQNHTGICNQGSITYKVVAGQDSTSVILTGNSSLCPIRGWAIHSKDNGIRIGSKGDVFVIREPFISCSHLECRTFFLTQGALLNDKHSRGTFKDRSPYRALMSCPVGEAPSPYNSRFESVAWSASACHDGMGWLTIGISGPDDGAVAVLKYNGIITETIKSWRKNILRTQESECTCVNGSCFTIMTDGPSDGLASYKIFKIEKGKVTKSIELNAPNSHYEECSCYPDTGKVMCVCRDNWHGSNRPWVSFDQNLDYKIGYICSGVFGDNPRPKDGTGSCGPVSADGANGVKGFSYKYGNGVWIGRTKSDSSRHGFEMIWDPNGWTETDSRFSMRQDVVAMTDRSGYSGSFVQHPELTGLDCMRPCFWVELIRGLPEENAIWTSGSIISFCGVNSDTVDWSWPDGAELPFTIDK
Neuraminidase (Influenza A virus), sequence (B4URF0 as listed by the source): as the sequence (B4URF0 whole entry) above

Take `CCC(CC)O[C@@H]1C=C(C(=O)O)C[C@H](N/C(N)=N/C2CC2)[C@H]1NC(C)=O`: the inhibition result in assay [1] was “inactive”.

As for `CCC(CC)O[C@@H]1C=C(C(=O)O)C[C@H](N/C(N)=N/C(C)C)[C@H]1NC(C)=O`, the inhibition entry in assay [1] is “inactive”.

For the molecule `CCC(CC)O[C@@H]1C=C(C(=O)O)C[C@H](N/C(N)=N/O)[C@H]1NC(C)=O`, the IC50 (commonly the concentration that inhibits the measured activity by half) at Neuraminidase [2] worked out at 33 nM; on Neuraminidase [3], 3.7 nM.

As for `CC/N=C(\N)N[C@H]1CC(C(=O)O)=C[C@@H](OC(CC)CC)[C@@H]1NC(C)=O`, in assay [1], the inhibition entry was “inactive”.

For the molecule `C=CC/N=C(\N)N[C@H]1CC(C(=O)O)=C[C@@H](OC(CC)CC)[C@@H]1NC(C)=O`, the inhibition result in assay [1] is “inactive”.

On Neuraminidase [4], `CC(=O)N[C@H]1C([C@H](O)[C@H](O)CO)OC(C(=O)O)=C[C@@H]1NC(=N)NC(=O)CSc1ccc2ccccc2c1` (stereo partly specified) registered an IC50 of 20 nM.

On to `CCC/N=C(\N)N[C@H]1CC(C(=O)O)=C[C@@H](OC(CC)CC)[C@@H]1NC(C)=O`, for which the inhibition entry in assay [1] is “inactive”.

For `CCC(CC)O[C@@H]1C=C(C(=O)O)C[C@H](N/C(N)=N/C)[C@H]1NC(C)=O`, the IC50 worked out at 3.6 nM on Neuraminidase [2] and 1.73 nM on Neuraminidase [3].

As for `CCC(CC)O[C@@H]1C=C(C(=O)O)C[C@H](N/C(N)=N/CC(F)(F)F)[C@H]1NC(C)=O`, in assay [1], the inhibition entry was “inactive”.

The values are drawn from ChEMBL document CHEMBL3232948 (J Med Chem, 2014).
